The values that follow come from publication PMC7228089, “Odiparcil, a potential glycosaminoglycans clearance therapy in mucopolysaccharidosis VI—Evidence from in vitro and in vivo models” (PLoS ONE, 2020).

The subject of data set [1] is MPS VI patient fibroblasts GM00538. Description: Number of cultured cells (viability) during odiparcil treatment. The data set is classed as cell-based, human. To be noted: different odiparcil concentrations, growing and confluent conditions. Here is the method: Primary skin fibroblasts from MPS VI patients GM00538 and GM02572 were obtained from the NIGMS Human Genetic Cell Repository at the Coriell Institute for Medical Research. Cell culturing was done according to the conditions provided by the Coriell Institute. For evaluation of the effect of odiparcil, cells were seeded in 96 well imaging plates (Falcon Cat N 353219) and two types of treatment were evaluated: i) prophylactic conditions—cells were treated with odiparcil before reaching confluence, 24 hours after plating; and ii) curative conditions—cells were treated with odiparcil after reaching confluence (10 days culturing). Cells were treated by odiparcil added to the culture media. This was done by replacing the initial culture media by media containing 0.1% DMSO with or without odiparcil (at 0.01, 0.03, 0.1, 0.3, 1, 3 and 10 μM). For treatment, the cells were incubated for 72 hours at 37°C, 5% CO2. All experimental conditions were performed in triplicate, i.e., 3 wells/test condition.
After odiparcil treatment as described above, culture media were removed to be used for dimethylmethylene blue (DMMB) assay and the cells were fixed in PFA 4%. Immunofluorescent staining was done following standard protocol comprising permeabilization with 0.1% Triton X 100, blocking with 2% NGS, staining with primary antibody and staining with secondary antibody and Hoechst (for nuclei visualization). […]

Another data set deals with Arsb^- mice. Description: Urinary excretion of total sulphated GAG (Blyscan) in mice treated with odiparcil. Type of data set: in vivo. Here is the method:
MPS VI model nonsense mutation Arsb^m1J homozygous mice (referred to as Arsb^- throughout the manuscript) and WT littermates were obtained from internal breeding of stock mice derived from The Jackson Laboratory strain No: 005598 (C57BL/6J-Arsb^m1J/GrsrJ). Genotyping and Arsb^m1J mutation identification were performed according to the protocol provided by The Jackson Laboratory. Each study group contained mix of male and female: 6 animals in disease progression studies and between 8 and 12 animals in odiparcil treatment studies.
Housing conditions. The animals were housed in groups of 3–10 (for mice) or 2 (for rats) in polypropylene cages (floor area = 1032 cm^2) under standard conditions: room temperature (22 ± 2°C), hygrometry (55 ± 10%), light/dark cycle (12h/12h), air replacement (15–20 volumes/hour), water and food ad libitum. […]
Total sulphated GAG in cell culture media were determined colorimetrically by DMMB method (described in [31] adapted for cell culture media). Total sulphated GAG in snap frozen liver and kidney samples and urine were measured using Blyscan assay from Biocolor Company (UK) following manufacturer’s instructions. […] For GAG in tissues quantification, individual pieces (approximately 50 mg) were removed from the frozen samples (liver and kidney), weighed and digested in 1 mL papain solution prepared according to the Blyscan kit protocol. […]

Data set [2] is described as follows: Odiparcil tissue exposure after repeated oral dosing (LC-MS/MS). Type of data set: in vivo, Sprague Dawley rats. To be noted: rat. Here is the method:
Sprague Dawley rats were orally administered with odiparcil for 5-days, three times a day (t.i.d) with a 25 mg/kg/dose as a suspension in Methylcellulose 400 cps 1% / Poloxamer 188 0.1% / Water. On day 5, only one dose was administered and tissues–bone from head of femurs and cartilage also from head of femurs, cornea and heart–were collected at 30 min post-dosing, 3 animals per sample. Tissues were snap-frozen immediately after collection and stored at -20°C until odiparcil quantification by LC-MS/MS. Non compartmental method was applied with Phoenix WinNonLin® to estimate the Cmax and AUC parameters. Tissue partition coefficient (Kp) was calculated on AUC values (AUC tissue / AUC plasma). Moreover, Kp for the heart was corrected for the significant blood content (26%) while it was not corrected for bone, cartilage and cornea.

Where “and” joins values, the source holds several entries; their conditions need not be identical. Identical values can stand only once. Like-named read-outs stand apart in the source and are kept apart here.

On to `Cc1cc(=O)oc2cc(O[C@@H]3SC[C@@H](O)[C@H](O)[C@H]3O)ccc12` [Odiparcil, 4-methyl-7-(5-thio-β-D-xylopyranosyloxy)-2 H-chromen-2-one], for which the “Effect on viability of the cells (number of cells)” value in data set [1] is “no effect on viability of the cells”. Also, the “Urinary GAG after discontinuation of the treatment” value in the data set with Arsb^- mice (Arsb^- mice, two weeks after discontinuation) is on record as “no elevated GAG were detected on top of the basal level”. Also, the “Total sulphated GAG in urine” value with Arsb^- mice (wild type and Arsb^- mice, oral 1.5 or 4.5 g/kg diet, after 3 and 6 months, early and advanced disease protocols) is recorded as “elevation of total GAG in urine”. Moreover, the Cmax – broadly, the highest concentration seen after dosing – in data set [2] (Sprague-Dawley, bone (head of femurs), po, 25 mg/kg, bone (head of femurs), oral 25 mg/kg/dose t.i.d. 5 days, read-out: Cmax (converted)) is 1310 ng/g; in data set [2] (Sprague-Dawley, bone (head of femurs), po, 25 mg/kg, bone, oral 25 mg/kg/dose t.i.d. 5 days, read-out: Cmax (converted)), 4 µM; in data set [2] (Sprague-Dawley, bone, cartilage, cornea, po, 25 mg/kg/dose, span over bone, cartilage and cornea, repeated oral dosing, read-out: Cmax (converted)), 500 ng/g to 1300 ng/g and 1.7 µM to 4 µM; in data set [2] (Sprague-Dawley, cartilage (head of femurs), po, 25 mg/kg, cartilage (head of femurs), oral 25 mg/kg/dose t.i.d. 5 days, read-out: Cmax (converted)) it was 1100 ng/g; in data set [2] (Sprague-Dawley, cartilage (head of femurs), po, 25 mg/kg, cartilage, oral 25 mg/kg/dose t.i.d. 5 days, read-out: Cmax (converted)), 3.4 µM; in data set [2] (Sprague-Dawley, cornea, po, 25 mg/kg, cornea, oral 25 mg/kg/dose t.i.d. 5 days, read-out: Cmax (converted)) it was 535 ng/g and 1.7 µM. In addition, the Cmax in data set [2] (Sprague-Dawley, heart, po, 25 mg/kg, heart, oral 25 mg/kg/dose t.i.d. 5 days, read-out: Cmax (converted)) is ~4600 ng/g and ~14.3 µM; in data set [2] (Sprague-Dawley, plasma, po, 25 mg/kg, plasma, oral 25 mg/kg/dose t.i.d. 5 days, 30 min after last administration, read-out: Cmax (converted)) it was around 7300 ng/mL; in data set [2] (Sprague-Dawley, plasma, po, 25 mg/kg, plasma, oral 25 mg/kg/dose t.i.d. 5 days, read-out: Cmax (converted)), around 22.5 µM; in data set [2] (plasma, oral 25 mg/kg/dose t.i.d. 5 days, 30 min after last administration, 25 mg/kg), 7 297 ng/mL. Further, the Kp at 120 h is 0.18 in data set [2] (Sprague-Dawley, bone (head of femurs), po, 25 mg/kg, bone, oral 25 mg/kg/dose t.i.d. 5 days, read-out: Kp AUC (AUC tissue / AUC plasma)); 0.12 in data set [2] (Sprague-Dawley, cartilage (head of femurs), po, 25 mg/kg, cartilage, oral 25 mg/kg/dose t.i.d. 5 days, read-out: Kp AUC (AUC tissue / AUC plasma)); 0.12 in data set [2] (Sprague-Dawley, cornea, po, 25 mg/kg, cornea, oral 25 mg/kg/dose t.i.d. 5 days, read-out: Kp AUC (AUC tissue / AUC plasma)); around 0.44 in data set [2] (Sprague-Dawley, heart, po, 25 mg/kg, heart, corrected for blood content (26%), oral 25 mg/kg/dose t.i.d. 5 days, read-out: blood corrected Kp AUC); 0.69 in data set [2] (Sprague-Dawley, heart, po, 25 mg/kg, heart, not blood corrected, oral 25 mg/kg/dose t.i.d. 5 days, read-out: Kp AUC (AUC tissue / AUC plasma)). For the same compound, in data set [2] (Sprague-Dawley, bone, cartilage, cornea, po, 25 mg/kg/dose, bone, cartilage and cornea together, repeated oral dosing, read-out: AUC Kp), the Kp is around 0.15. For the same compound, the AUC – broadly, concentration integrated over time – in data set [2] (Sprague-Dawley, plasma, oral 25 mg/kg/dose t.i.d. 5 days, read-out: AUC (converted)) was 14800 ng·h/mL; in data set [2] (bone, oral 25 mg/kg/dose t.i.d. 5 days) it was 2 646 ng.h/g; in data set [2] (cartilage, oral 25 mg/kg/dose t.i.d. 5 days), 1 805 ng.h/g; in data set [2] (cornea, oral 25 mg/kg/dose t.i.d. 5 days) it was 1 737 ng.h/g; in data set [2] (heart, oral 25 mg/kg/dose t.i.d. 5 days), 10 203 ng.h/g.
